In patent publication EP4177246A1, “FUSED OXAZEPINES AS INHIBITORS OF PEROXIREDOXINS” (Centro Atlántico del Medicamento, SA, priority 2021, dated 2023):

Assays:
[1] = system: PANC-1; assay: MTT cell viability assay, PANC-1 cells; assay type: cell-based; conditions: Homo sapiens, 48 h drug exposure
Experimental: PANC-1 [American Type Culture Collection (ATCC) reference number CRL-1469]. This a human cancer cell line derived from the pancreas of a person.
(§1) Cell viability was assayed by measuring the mitochondrial reduction of the tetrazolium salt 3-(4,5-methyltiazol-2yl)-2,5diphenyl-tetrazolium bromide] (MTT) (Applichen; A2231,0010) [Mosmann T. J Immunol Methods. 1983 16;65(1-2):55-63 (ref. 36); Chuan Y-C et al 2010. Oncogene. 29 (10), 1531-1542 (ref. 37)]. Cells were seeded in 96-well plates in medium (either RPMI, DMEM or McCoys depending on the recommendations from the ATCC) supplemented with 10% FBS (Lonza Cat. N°: 14-502F), 2mM L-Glut (Lonza Cat. N°: BE17-605E) and 100U/ml PEST (Lonza Cat. N°: DE17-605E) at a cell density of 1000-5000 cells/well (96 well plate). Cells were seeded at a density according to their exponential growth phase (normally 1000 to 5000/well). The cells were cultured at 37 °C in the dark in air containing 5% CO2. After 24h either vehicle (0.05% DMSO) or drug were added to culture medium at the indicated concentrations (10 to 0,01microM). After another 48 h, MTT (0.3 mg/ml) was added to cells, followed by incubation for 2-4h at 37 °C in the dark. The medium was then removed and the precipitated formazan was solubilized by the addition of DMSO (200 µL).
(§2) The optical density was measured at 595 nm with the iMark Microplate Reader (BioRad, USA). Data was expressed as percent growth above the level in controls and the results in figures were plotted as means ± SEM of each test point from 3 replicates.
(§3) Statistical analysis. The concentration of drug that provokes 50% reduction of cell viability (IC50) was determined by using non-linear regression analysis and data were fitted to a log concentration vs normalized response curve in GraphPad software v5 (San Diego, CA).

[2] = system: DU-145; assay: MTT cell viability assay, DU-145 cells; assay type: cell-based; conditions: Homo sapiens, 48 h drug exposure
Experimental: DU-145 [American Type Culture Collection (ATCC) reference number HTB-81]. This a human prostate cancer cell line derived from a metastatic site (brain) of a person.
as §1, §2, §3

[3] = system: PRDX1 and/or PRDX2; assay: Resin-bound affinity chromatography with competition/elution by free compound (type of binding); set-up: species or system human; conditions: MDA-MB-231 cell lysates; pre-incubation 1.5 hours with 50 micrograms of free compound; SDS-PAGE, silver staining
Experimental: The immobilization of compound (24) and the identification of its targets was accomplished using a previously described method [Orive-Ramos A, Seoane S, Ocaña A, Pandiella A, Montero JC. Regulation of the prometastatic neuregulin-MMP13 axis by SRC family kinases: therapeutic implications. Mol Oncol. 2017 Dec; 11(12): 1788-1805] (ref. 32). Briefly, 5 mg of the compound was dissolved in a coupling solution (50% dimethylformamide, 50% 0.1 M Na2CO3), and incubated with 0.5 mg of epoxy-activated sepharose 6B (GE Healthcare Life Sciences; Piscataway, NJ, USA), obtaining a CM728-coupled resin. A control resin was prepared without the compound (uncoupled). Both resins were incubated with 25 mg of cell extracts from MDA-MB-231 and BT-549 cancer cells.
The resulting complexes were retrieved by centrifugation, washed with lysis buffer, re-suspended and boiled in loading buffer and resolved in SDS-PAGE. The gel was silver stained and the bands of interest were excised, digested by trypsin (Figure 1). […]
In another experiment the resins collected after being incubated with cell lysates (analyzed in lanes 1 and 2) were further treated with free compound 24 to elute non-covalent compound 24 specific, binding proteins. […]

[4] = target: T1, PRDX1 (Homo sapiens, UniProt Q06830); assay: Western blot of monomeric/dimeric and oxidized forms of PRDX1 in treated cells; assay type: cell-based; conditions: 1 µM, MDA-MB-231 cells
T1 construct: treatment of untreated MDA-MB-231 cell lysates with a resin coupled to compound 24; endogenous in cells; host or cells: MDA-MB-231 (ATCC HTB-26)
T1 sequence (Q06830 1-199): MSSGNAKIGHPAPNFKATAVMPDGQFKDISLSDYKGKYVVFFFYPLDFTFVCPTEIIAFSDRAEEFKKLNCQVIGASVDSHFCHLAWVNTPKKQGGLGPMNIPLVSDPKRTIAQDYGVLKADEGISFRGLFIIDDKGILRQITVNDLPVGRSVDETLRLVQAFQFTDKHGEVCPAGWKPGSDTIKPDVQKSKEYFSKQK
Experimental: To that end, compound 24 1 µM was added to MDA-MB-231 cells and followed by Western Blot analysis. β-actin was used as control.
Non-reducing and reducing conditions used are those commonly used to assess the status of PRDX1 (see ref. 34 and 35) ref. 35

IC50 [1]: 0.32 µM | IC50 [2]: 3.19 µM | manner in which compound binds to PRDX1 and/or PRDX2 [3]: non-reversible covalent manner
SMILES: O=C1C2=C(C(=O)c3c(O)ccc(O)c31)N(c1cccnc1)Cc1ccccc1O2 [Compound 24, 7,10-dihydroxy-12-(pyridin-3-yl)-12,13-dihydrobenzo[f]naphtho[2,3-b][1,4]oxazepine-6,11-dione]
conversion of PRDX1 monomeric form into dimeric form ([4]; non-reducing conditions): a rapid conversion of PRDX1 from its basal active monomeric form, into its inactive dimeric form | levels of hyperoxidized PRDX1 (SO2/3-Prdx) ([4]; reducing conditions): a significant increase in the levels of inactive hyperoxidized 2-cystiene PRDX1
